Measurements as given in ChEMBL document CHEMBL2040789, “Optimization of the Central Core of Indolinone-Acetic Acid-Based CRTH2 (DP2) Receptor Antagonists” (ACS Med Chem Lett, 2011).

Assays:
[1] = biological target: T1, Prostaglandin D2 receptor 2 (Homo sapiens, UniProt Q9Y5Y4); assay: Displacement of [3H]PGD2 from human CRTH2 receptor expressed in CHO cells after 90 mins by scintillation proximity assay; format: cell-based
T1 sequence (Q9Y5Y4 whole entry): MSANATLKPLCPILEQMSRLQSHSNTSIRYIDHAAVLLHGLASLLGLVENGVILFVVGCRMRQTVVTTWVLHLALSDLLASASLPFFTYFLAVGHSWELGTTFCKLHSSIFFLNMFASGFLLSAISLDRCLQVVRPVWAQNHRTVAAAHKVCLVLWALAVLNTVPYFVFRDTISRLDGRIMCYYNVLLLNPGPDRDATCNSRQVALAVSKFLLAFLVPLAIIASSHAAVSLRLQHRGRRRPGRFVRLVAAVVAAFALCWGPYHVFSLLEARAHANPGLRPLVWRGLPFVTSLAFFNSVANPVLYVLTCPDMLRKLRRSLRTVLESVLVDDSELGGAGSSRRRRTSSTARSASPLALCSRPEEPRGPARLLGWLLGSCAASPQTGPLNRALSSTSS

[2] = Drug degradation at pH 9 after 24 hrs; format: physicochemical; details: buffer, read-out: Drug degradation
[3] = Fraction unbound in human plasma; format: ADME, cell-free
[4] = Oral bioavailability in Sprague-Dawley rat at 5 mg/kg; format: ADME, organism-based; details: in vivo
[5] = Apparent permeability of the compound in human Caco2 cells; format: ADME, cell-based; details: Caco-2
[6] = Drug degradation in human plasma after 24 hrs; format: ADME, cell-free; details: read-out: Drug degradation
[7] = Clearance in Sprague-Dawley rat at 1 mg/kg, iv and 5 mg/kg, po; format: ADME, organism-based; details: in vivo
[8] = Half life in human plasma; format: ADME, cell-free
[9] = Drug degradation at pH 8 after 24 hrs; format: physicochemical; details: buffer, read-out: Drug degradation
[10] = Drug degradation at pH 7.4 after 24 hrs; format: physicochemical; details: buffer, read-out: Drug degradation
[11] = Stability assessed as drug degradation by measuring 2-(5-chloro-3-(2-(2-fluorobenzylamino)-2-oxoethyl)-2-oxoindolin-1-yl)acetic acid formation at pH > 6 after 24 hrs; format: physicochemical
[12] = Stability assessed as drug degradation by measuring 2,2'-(5-chloro-3-(2-fluorobenzylcarbamoyl)-2-oxoindoline-1,3-diyl)diacetic acid formation at pH > 6 after 24 hrs; format: physicochemical
[13] = tested on: Mus musculus; assay: Antiinflammatory activity in ovalbumin-sensitised Balb/c mouse assessed as reduction in ovalbumin-induced eosinophil count in bronchoalveolar lavage fluid at 1 mg/kg, ip administered 1 hr before and 7 hrs after ovalbumin challenge measured after 8 hrs by haemocytometeric analysis; format: functional; details: Lung, route intraperitoneal

`CN1C(=O)N(Cc2cc(F)ccc2F)C(=O)C12C(=O)N(CC(=O)O)c1ccc(Cl)cc12` (stereo not drawn) showed a Ki [1] of 390 nM.
Compound `COc1c(C)cnc(CN2C(=O)N(C)C3(C2=O)C(=O)N(CC(=O)O)c2ccc(Cl)cc23)c1C` (stereo not drawn) has a Ki [1] of 280 nM.
In the case of `Cc1onc(-c2ccccc2)c1CN1C(=O)N(C)C2(C1=O)C(=O)N(CC(=O)O)c1ccc(Cl)cc12` (stereo not drawn), the Ki [1] is reported as 110 nM.
With `CN1C(=O)N(Cc2cn(-c3ccccc3)nc2-c2ccccc2)C(=O)C12C(=O)N(CC(=O)O)c1ccc(Cl)cc12` (stereo not drawn) the Ki [1] was 96 nM.
`CC(C)c1nc(CN2C(=O)N(C)C3(C2=O)C(=O)N(CC(=O)O)c2ccc(Cl)cc23)cs1` (stereo not drawn) showed a Ki [1] of 490 nM.
For `O=C(O)CN1C(=O)C2(NC(=O)N(Cc3ccccc3F)C2=O)c2cc(Cl)ccc21` (stereo not drawn), the Ki [1] was 390 nM.
For `O=C(O)CN1C(=O)[C@@]2(CC(=O)N(Cc3cc(Cl)ccc3F)C2)c2cc(Cl)ccc21`, the degraded at 24 h [2] was < 5%, the fraction unbound [3] was < 0.01 and the bioavailability [4] was 5%. The Papp [5] was 1.8 ×10⁻⁶ cm/s, the metabolised at 24 h [6] was < 15% and the clearance [7] was 12 mL/min/kg.
`O=C(O)CN1C(=O)[C@@]2(CC(=O)N(Cc3ccccc3F)C2=O)c2cc(Cl)ccc21` showed a half-life [8] of 1 h, a degraded at 24 h [9] of 50% and a degraded at 24 h [10] of 25%. For the same compound, the Stability [11] was “Unstable” and the Stability [12] was “Unstable”.
In the case of `C[C@@H]1C[C@H]2[C@@H]3CCC4=CC(=O)C=C[C@]4(C)[C@@]3(F)[C@@H](O)C[C@]2(C)[C@@]1(O)C(=O)CO` [DEXAMETHASONE], the inhibition in vivo at 1 mg/kg [13] is reported as 83%.
